Source: publication PMC4010493, “Molecular Characterization and Expression Analysis of ATP-Gated P2X7 Receptor Involved in Japanese Flounder (Paralichthys olivaceus) Innate Immune Response” (PLoS ONE, 2014)

How the values were obtained:
Type in all cases: cell-based
rP2RX7 [1] = biological target: T1, rP2RX7 (Rattus norvegicus, UniProt Q64663); experiment: two-electrode voltage clamp, Xenopus oocytes
T1 construct: gene P2rx7; rat P2RX7 cDNA in Xenopus laevis oocytes; homotrimer
T1 sequence (Q64663 1-595): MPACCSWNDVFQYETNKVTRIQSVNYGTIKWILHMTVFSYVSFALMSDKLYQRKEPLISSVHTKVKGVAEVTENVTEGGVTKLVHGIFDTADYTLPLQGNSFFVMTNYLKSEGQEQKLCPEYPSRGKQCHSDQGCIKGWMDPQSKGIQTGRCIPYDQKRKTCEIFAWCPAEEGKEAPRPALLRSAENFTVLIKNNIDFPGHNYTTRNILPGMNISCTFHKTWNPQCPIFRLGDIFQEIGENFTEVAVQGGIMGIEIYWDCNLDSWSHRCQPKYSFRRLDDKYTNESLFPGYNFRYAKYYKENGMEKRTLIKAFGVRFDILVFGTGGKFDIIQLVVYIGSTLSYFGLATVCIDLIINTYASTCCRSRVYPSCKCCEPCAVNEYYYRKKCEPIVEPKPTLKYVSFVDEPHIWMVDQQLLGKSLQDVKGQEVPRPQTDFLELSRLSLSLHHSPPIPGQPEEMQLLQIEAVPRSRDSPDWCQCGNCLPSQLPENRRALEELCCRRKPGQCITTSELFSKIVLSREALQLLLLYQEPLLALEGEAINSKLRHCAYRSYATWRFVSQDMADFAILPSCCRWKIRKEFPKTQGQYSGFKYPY

poP2RX7 [2] = biological target: T2, poP2RX7 (Paralichthys olivaceus, UniProt A0A059T2C6); experiment: two-electrode voltage clamp, Xenopus oocytes
T2 construct: Xenopus laevis oocytes; homotrimer
T2 sequence (A0A059T2C6 entry or part of it): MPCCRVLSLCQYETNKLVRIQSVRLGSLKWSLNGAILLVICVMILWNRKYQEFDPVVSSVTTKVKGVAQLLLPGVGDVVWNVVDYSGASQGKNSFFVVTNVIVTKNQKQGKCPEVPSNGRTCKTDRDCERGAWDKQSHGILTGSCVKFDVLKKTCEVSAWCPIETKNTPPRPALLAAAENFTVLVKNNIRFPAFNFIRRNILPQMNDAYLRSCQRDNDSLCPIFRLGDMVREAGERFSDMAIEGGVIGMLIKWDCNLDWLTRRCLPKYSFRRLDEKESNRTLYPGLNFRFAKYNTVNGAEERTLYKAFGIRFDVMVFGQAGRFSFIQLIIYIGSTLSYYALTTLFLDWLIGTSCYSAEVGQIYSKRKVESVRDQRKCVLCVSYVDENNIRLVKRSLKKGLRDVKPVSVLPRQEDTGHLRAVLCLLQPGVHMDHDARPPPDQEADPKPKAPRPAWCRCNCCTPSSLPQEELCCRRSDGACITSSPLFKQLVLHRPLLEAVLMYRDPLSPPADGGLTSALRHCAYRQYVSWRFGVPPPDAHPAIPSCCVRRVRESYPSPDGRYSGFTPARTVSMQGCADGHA

rP2RX7 [3] = biological target: T1, rP2RX7; experiment: two-electrode voltage clamp, inhibition of ATP-evoked current; settings: antagonist; 2 min pre-application, then co-applied with ATP; -70 mV, pH 7.5
poP2RX7 [4] = biological target: T2, poP2RX7; experiment: as above; settings: antagonist; 2 min pre-application, then co-applied with ATP; -70 mV, pH 7.5
poP2RX7 [5] = biological target: T2, poP2RX7; experiment: as above; settings: antagonist; 2 min pre-application, then co-applied with ATP; -70 mV, pH 7.5; remark: listed apart in the source

Row | EC50 (rP2RX7 [1]) [µM] | EC50 (poP2RX7 [2]) [µM] | SMILES | inhibition (rP2RX7 [3]) | inhibition at 20 μM (poP2RX7 [4]) | inhibition at 1 μM (poP2RX7 [5])
1 | 13.3 ± 1.6 | 743 ± 299 | Nc1ncnc2c1ncn2[C@@H]1O[C@H](COP(=O)(O)OP(=O)(O)OP(=O)(O)O)[C@@H](OC(=O)c2ccc(C(=O)c3ccccc3)cc2)[C@H]1O [BzATP] |  |  | 
2 |  |  | O=C(CC12CC3CC(CC(C3)C1)C2)Nc1cccc2nc(NCCNCCO)ccc12 [AZ10606120] | AZ10606120 was less potent in poP2RX7 than in rP2RX7 | AZ10606120 was less potent in poP2RX7 than in rP2RX7 | 
3 |  |  | CCOc1ccc(Nc2ccc(C(=C3C=CC(=[N+](CC)Cc4cccc(S(=O)(=O)[O-])c4)C=C3C)c3ccc(N(CC)Cc4cccc(S(=O)(=O)O)c4)cc3C)cc2)cc1 [BBG] | inhibition induced by BBG or AZ10606120 (AZ) at poP2RX7 (open bars) and rP2RX7 |  | ATP-evoked currents at poP2RX7 could be inhibited by both of the antagonists
4 | 376 ± 120 | 790 ± 81 | Nc1ncnc2c1ncn2[C@@H]1O[C@H](COP(=O)(O)OP(=O)(O)OP(=O)(O)O)[C@@H](O)[C@H]1O [ATP] |  |  | 
